{"source": "patent US8337851B2", "about": "“Methods of monitoring the efficacy of anti-CD40 antibodies in treating a subject for a CD40-expressing cancer” (Novartis AG, priority 2005, dated 2012)", "key": {"[1]": {"test_system": "cancer cells from NHL and CLL patients", "assay": "In vitro CD40 ligand-mediated proliferation of patient cancer cells", "format": "cell-based, human", "source_text": "(§1) 4, 2003, Nov. 26, 2003, and Apr. 27, 2004, and assigned U.S. Patent Application Nos. 60/517,337, 60/525,579, and 60/565,710, respectively, and International Patent Application No. PCT/US2004/037152, also entitled “Antagonist, Anti-CD40 Monoclonal Antibodies and Methods for Their Use,” filed Nov. 4, 2004; the contents of each of which are herein incorporated by reference in their entirety."}, "[2]": {"test_system": "primary cancer cells from NHL patients", "assay": "ADCC against primary cancer cells", "format": "cell-based, human", "details": "in vitro", "source_text": "as §1"}, "[3]": {"test_system": "B-CLL cells from patients", "assay": "Flow cytometry of cleaved PARP and TUNEL in B-CLL cells", "format": "cell-based, human", "details": "10 μg/ml with 1 μg/ml sCD40L, 24 hours", "experimental": "In this experiment, 0.4×10^6B-CLL cells from patients were stimulated with 1 μg/ml sCD40L (Alexis Corp., Bingham, Nottinghamshire, UK). CHIR12.12 (10 μg/ml) or control IgG was then added. […] After fixation and permeabilization, the cells were stained for cleaved PARP and TUNEL methods."}, "[4]": {"test_system": "human lymphocytes from normal subjects", "assay": "Proliferation of human lymphocytes", "format": "cell-based"}, "ARH-77 cells": {"test_system": "ARH-77 cells", "assay": "ADCC, Calcein release with human NK cells, ARH-77", "format": "cell-based", "details": "NK:target 10 to 1, 4 hours, read-out: ED50 (percent specific lysis)", "experimental": "Human MM cell lines, KMS-12-BM, IM-9, and ARH-77, were washed 3 times using R2 medium (Pheno red-free RPMI with 2% FBS) and re-suspended in R10 medium (Pheno red-free RPMI with 10% FBS) at the density of 1×10^6/mL. Cells were labeled by adding Calcein AM (final concentration […]) and incubating for 30 minutes at 37° C. in a humidified atmosphere with 5% CO2. Purified human NK cells and Calcein-labeled target cells were mixed in R10 medium at the ratio of 10 to 1 (5×10^4 NK cells and 5×10^3 target cells in […]) and added in U-bottom 96 well plate (Packard's Instrument, Meriden, Conn.). […] 1% NP-40 was added in 3 wells for the maximum cell lysis. Cells were incubated for 4 hours without disturbance at 37° C. in a humidified atmosphere with 5% CO2. The plate was then centrifuged at 300 rpm without brake for 5 minutes. […] supernatant was transferred into a new 96 well plate. The released Calcein in the supernatant was measured in arbitrary fluorescent unit (AFU) at 485 nm excitation and 535 nm emission using Tecan SpectraFluor Plus (Tecan U.S., Inc., Research Triangle, N.C.). The percent of specific lysis was calculated as: 100×(AFU test−AFU spontaneous release)/(AFU maximal release−AFU spontaneous release).\nThe ED50 was determined for each cell line by plotting the log of antibody concentration versus the percent specific lysis (see FIG. 16)."}, "[5]": {"test_system": "CD40-expressing target cells", "assay": "ADCC activity of anti-CD40 antibodies (Table 1)", "format": "cell-based"}, "[6]": {"test_system": "B-CLL cells from patients", "assay": "Western blot of apoptosis markers in B-CLL cells not stimulated with CD40L", "format": "cell-based, human", "details": "10 μg/ml; 1, 4 and 24 hours; no CD40L", "experimental": "Cells were collected at 1, 4, and 24 hours. Western blot analysis with antibodies to cleaved PARP (apoptotic protein) and XIAP (anti-apoptotic protein) was conducted on cell lysates."}, "soluble CD40": {"molecular_target": "soluble CD40 (Homo sapiens, UniProt P25942)", "sequence (P25942 21-193 limits assumed)": "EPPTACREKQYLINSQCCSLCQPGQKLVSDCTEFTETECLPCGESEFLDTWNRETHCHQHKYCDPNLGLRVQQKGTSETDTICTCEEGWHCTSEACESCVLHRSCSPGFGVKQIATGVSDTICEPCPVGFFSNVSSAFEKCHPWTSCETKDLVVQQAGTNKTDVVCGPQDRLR", "assay": "ELISA-type binding to soluble CD40", "details": "ELISA-type assays", "source_text": "2, 2000, and PCT International Application No. PCT/US01/30857, also titled “Human Anti-CD40 Antibodies,” filed Oct. 2, 2001, both of which are herein incorporated by reference in their entirety."}, "KMS-12-BM tumor": {"test_system": "KMS-12-BM tumor", "assay": "Human KMS-12-BM subcutaneous xenograft model", "format": "in vivo, SCID mice", "details": "42 days post cell implantation", "experimental": "Female SCID mice were treated with 3Gy irradiation one day prior to implantation of tumor cells. On the day of implantation, cells were prepared at a concentration of 5×10^7 cells/ml in 50% matrigel. Cells were implanted subcutaneously over the right flank at 5×10^6 cells/100 μl/mouse. […] Antibodies were administered intraperitoneally once a week for 4 weeks. Bortezomib was administered intravenously twice a week for two weeks."}, "[7]": {"test_system": "IM-9 tumor cells (a human multiple myeloma cell line)", "assay": "Staged orthotopic IM-9 xenograft survival model", "format": "in vivo, SCID mice", "details": "0.1, 1 or 10 mg/kg i.p. once a week from 7 days after implantation", "experimental": "SCID mice were inoculated subcutaneously with IM-9 tumor cells (a human multiple myeloma cell line expressing both CD40 and CD20) in 50% […]™ at 5×10^6 cells per mouse. In unstaged models, treatment was initiated one day after tumor implantation. […] Alternatively, tumor-bearing mice were injected with bortezomib at 0.5 mg/kg or 1 mg/kg intravenously once a week. Data were analyzed using the log-rank test.\nIn staged models, treatment was initiated 7 days after tumor cell implantation. […] Alternatively, tumor-bearing mice were injected with bortezomib at 0.5 mg/kg intravenously. Data were analyzed using the log-rank test."}, "primary B-CLL cells": {"test_system": "primary B-CLL cells", "assay": "Western blot of cPARP, Mcl-1, Bcl-xl in primary B-CLL cells", "format": "cell-based, human", "details": "10 μg/ml with rhsCD40L", "experimental": "Whole cell lysates were prepared in RIPA lysis buffer (1% Nonidet P-40, 0.5% sodium deoxycholate, 0.1% Sodium dodecylsulfate in 1× phosphate buffered saline, pH 7.2). 10-20 μg of protein per sample were resolved on a 10% Tris-Glycine gel and transferred to nitrocellulose membranes, and membranes were probed using mAbs specific to human cPARP, Mcl-1, or Bcl-xl. The membranes were stripped and re-probed for β-actin and developed using ECL."}, "[8]": {"test_system": "IM-9 tumor cells (a human multiple myeloma cell line)", "assay": "IM-9 multiple myeloma subcutaneous xenograft model", "format": "in vivo, SCID mice", "experimental": "SCID mice were inoculated subcutaneously with IM-9 tumor cells (a human multiple myeloma cell line expressing both CD40 and CD20) in 50% […]™ at 5×10^6 cells per mouse. […] Alternatively, bortezomib dosing at 1 mg/kg intravenously occurred on days 5, 8, 12, and 15 after tumor implantation. […] Antibody dosing occurred on days 8, 14, and 21 post tumor implantation, while bortezomib dosing occurred on days 8, 11, 14 and 18 post tumor implantation. […] Data were analyzed using the log-rank test."}}, "note": "pEC50: −log10 of the molar value. “Also recorded” adds a separate entry of the source.", "data": [{"substance": "CHIR-12.12: fully human anti-CD40 monoclonal antibody of the IgG1 isotype from hybridoma cell line 153.8E2.D10.D6.12.12 (ATCC PTA-5543)", "values": [{"measurement": "effect on CD40 ligand-mediated proliferation of cancer cells", "setting": "[1]", "value": "inhibiting in vitro CD40 ligand-mediated proliferation of cancer cells from NHL and CLL patients"}, {"measurement": "killing of primary cancer cells by ADCC", "setting": "[2]", "value": "kill primary cancer cells from NHL patients by ADCC"}, {"measurement": "percentage of cells positive for cleaved PARP or TUNEL", "setting": "[3]", "value": "the percentage of positive cells for cleaved PARP or TUNEL returned to the levels seen without sCD40L stimulation"}, {"measurement": "CD40L-induced lymphocyte proliferation", "setting": "[4]", "value": "inhibits CD40L-induced lymphocyte proliferation"}, {"measurement": "induction of lymphocyte proliferation (agonist activity)", "setting": "[4]; antibody alone", "value": "do not induce strong proliferation of human lymphocytes from normal subjects; also recorded: does not induce the proliferation of human peripheral blood lymphocytes"}, {"measurement": "pEC50", "setting": "ARH-77 cells", "value": 10.62}, {"measurement": "killing of CD40-expressing target cells by ADCC", "setting": "[5]", "value": "able to kill CD40-expressing target cells"}, {"measurement": "apoptosis without CD40L stimulation (cleaved PARP, XIAP)", "setting": "[6]", "value": "did not trigger additional apoptosis of B-CLL cells"}, {"measurement": "binding to soluble CD40", "setting": "soluble CD40", "value": "bind soluble CD40"}, {"measurement": "tumor volume reduction", "setting": "KMS-12-BM tumor; 1 mg/kg i.p. once a week for 4 weeks, P>0.05", "value": 32, "unit": "%"}, {"measurement": "tumor volume reduction", "setting": "KMS-12-BM tumor; 10 mg/kg i.p. once a week for 4 weeks, P<0.05", "value": 35, "unit": "%"}, {"measurement": "survival of tumor-bearing mice", "setting": "[7]", "value": "prolonged survival of tumor-bearing mice"}, {"measurement": "cPARP levels and Mcl-1 and Bcl-xl expression (Western blot)", "setting": "primary B-CLL cells", "value": "blocked the CD40L-mediated decrease of cPARP levels and CD40L-mediated increase of Mcl-1 and Bcl-xl expression"}, {"measurement": "Ki67+ proliferating cells (histology)", "setting": "[8]; 5 days after a single dose", "value": "significantly reduced the number of Ki67^+ proliferating cells"}, {"measurement": "cleaved caspase 3 and cleaved PARP (histology)", "setting": "[8]; 5 days after a single dose", "value": "increased the level of cleaved caspase 3 and cleaved PARP"}, {"measurement": "tumor growth", "setting": "[8]; first study, CHIR-12.12 1 and 10 mg/kg i.p. days 5, 12, 18, bortezomib 1 mg/kg i.v. days 5, 8, 12, 15", "value": "inhibited tumor growth at 15, 18, and 21 days post tumor implantation"}, {"measurement": "tumor volume, CHIR-12.12 in combination with bortezomib", "setting": "[8]; second study, CHIR-12.12 1 mg/kg i.p. plus bortezomib 1 mg/kg i.v.", "value": "the efficacy observed was additive; also recorded: a tumor volume reduction was observed on days 13, 16, 20, 23, and 26"}]}]}
